Test results as given in US20090233906A1, “IMIDAZOAZEPINONE COMPOUNDS” (priority 2006, published 2009).

Tested on: human T-bet
Assay: HEKT-bet-luc assay (normalized)
Type: cell-based
Settings: Homo sapiens, HEK293, 24 h, normalized HEKT-bet-luc IC50; engineered HEK cells, T-box responsive luciferase reporter, compound 24 hours; normalized to reference ER-819544; read-out: IC50
Protocol: HEKT-bet-luc assay: This assay measures a T-bet dependent reporter (luciferase) activity in engineered HEK cells that express a human T-bet and a T-box responsive element driving luciferase reporter. HEKT-bet cells were plated at 2×10^4/well in 96-well plate and compound was added into cell culture for 24 hours. Luciferase activity was measured by adding 50 μl of Steady-Glo reagent (Promega) and samples were read in Victor V reader (PerkinElmer). The activity of compound was determined by comparing compound treated samples to non-compound treated vehicle controls. The IC50 values were calculated utilizing a maximum value corresponding to the amount of luciferase in the absence of a test compound and a minimum value corresponding to a test compound value obtained at maximum inhibition.
Determination of Normalized HEKT-bet IC50 values: Compounds were assayed in microtiter plates. Each plate included a reference compound which was ER-819544. The un-normalized IC50 value for a particular compound was divided by the IC50 value determined for the reference compound in the same microtiter plate to provide a relative potency value. The relative potency value was then multiplied by the established potency of the reference compound to provide the normalized HEKT-bet IC50 value. […] The IC50 values provided herein were obtained using this normalization method.

## COCCN1C(=O)N2Cc3cc(OC)cc(OC)c3C(C)(C)C=C2C12CCN(Cc1cc(OC)cc(OC)c1OC)CC2 [compound 819752]
  IC50: 71 nM

## CCN1C(=O)N2Cc3cc(OC)c(OC)c(OC)c3C(C)C=C2C12CCN(Cc1cccc3cccnc13)CC2 (centres unmarked) [compound 819755]
  IC50: 53 nM

## CCN1C(=O)N2Cc3cc(OC)cc(OC)c3C(C)C=C2C12CCN(Cc1cccc(OC)c1OC)CC2 (centres unmarked) [compound 819767]
  IC50: 148 nM

## CCN1C(=O)N2Cc3cc(OC)cc(OC)c3C(C)C=C2C12CCN(Cc1ccco1)CC2 (centres unmarked) [compound 819768]
  IC50: 183 nM

## CCN1C(=O)N2Cc3cc(OC)cc(OC)c3C(C)C=C2C12CCN(Cc1ccoc1)CC2 (centres unmarked) [compound 819769]
  IC50: 190 nM

## CCN1C(=O)N2Cc3cc(OC)cc(OC)c3C(C)C=C2C12CCN(Cc1ccc(C)o1)CC2 (centres unmarked) [compound 819770]
  IC50: 267 nM

## CCN1C(=O)N2Cc3cc(OC)cc(OC)c3C(C)C=C2C12CCN(Cc1occ(C)c1C)CC2 (centres unmarked) [compound 819771]
  IC50: 205 nM

## CCN1C(=O)N2Cc3cc(OC)cc(OC)c3C(C)C=C2C12CCN(Cc1cccn1C)CC2 (centres unmarked) [compound 819772]
  IC50: 103 nM

## CCN1C(=O)N2Cc3cc(OC)cc(OC)c3C(C)(C)C=C2C12CCN(Cc1ccc3nc[nH]c3c1)CC2 [compound 819777]
  IC50: 110 nM

## COc1cc2c(c(OC)c1)C(C)C=C1N(C2)C(=O)N(CC2CC2)C12CCN(Cc1cc(C)cc(C)c1)CC2 (centres unmarked) [compound 819991]
  IC50: 120 nM

## COc1cc2c(c(OC)c1)C(C)C=C1N(C2)C(=O)N(CC=C(C)C)C12CCN(Cc1cc(C)cc(C)c1)CC2 (centres unmarked) [compound 819995]
  IC50: 330 nM
